# US11560362B2, “Dibutylfluorene derivative and application thereof as photoinitiator” (HUI ZHOU HUAHONG NEW MATERIAL CO., LTD., priority 2017, dated 2023)
# Key:
# [1] = Solubility of solid photoinitiator in liquid polymerized monomer (HDDA or TPGDA); conditions: dissolved at 50-60° C., stored at room temperature
# [2] = Stability analysis: mobility of initiator compound from cured print into analog solutions, by HPLC; format: physicochemical; conditions: 40° C. for 10 days, calculated for 1 kg of food per 600 cm^2 printing area
# Description: The cardboard is cut to a size of 10×10 cm, is completely immersed in two analog solutions, i. e., 100 ml distilled water and 3% acetic acid aqueous solution, sealing is performed well, and placement is performed at 40° C. for 10 days. The printed matter is taken out, and after standing, the contents of the initiator compounds in the analog solutions are directly analyzed by means of HPLC.
SMILES,Solubility ([1]; Polymerized monomer 1: HDDA),Solubility ([1]; Polymerized monomer 2: TPGDA),Mobility ([2]; 3% acetic acid),Mobility ([2]; Water)
CC(C)(C(=O)c1ccc(-c2ccccc2)cc1)N1CCOCC1 [2-methyl-1-(4-biphenyl)-2-morpholinyl-1-acetone],20 % (mass fraction),15 % (mass fraction),98 µg/kg,80 µg/kg
"CCCCC1(CCCC)c2ccccc2-c2ccc(C(=O)C(C)(C)N3CCOCC3)cc21 [2-methyl-1-(2-(9,9-dibutylfluorenyl))-2-(N-morpholinyl)-1-acetone]",–,–,60 µg/kg,50 µg/kg
